Test: Hydrolysis stability of monomer in water/ethanol/phosphoric acid (1H-NMR)
Type: physicochemical
Description: A major advantage of the amides according to the invention is to be seen in their hydrolysis stability. Aqueous solutions of the amides are thus also storage-stable in the presence of acidic compounds. As a linking of the monomer components via covalent C—C single bonds takes place on polymerization, this also applies to the corresponding polymers.

Question: For Glycerine dimethacrylate, which Hydrolysis stability (20 wt.-% solution in 1:1:1 water, ethanol and 10% phosphoric acid, 37° C., 4 weeks, 1H-NMR) is on record?
Answer: −

Question: What about the “Hydrolysis stability in the presence of acid (in words)” value (aqueous solution, in the presence of phosphoric acid / acidic compounds) of the same substance?
Answer: completely split to form glycerine and methacrylic acid

— patent US6953832B2, “Dental materials based on polyfunctional amides” (Ivoclar Vivadent AG, priority 2001, dated 2005)
